Earlier results, collected in patent US20050095200A1, “Prokinetic drugs assistance to small intestine imaging” (priority 2003, published 2005).
Where two headings read alike, the source gives them in different places. Blank lines part the entries; values can stand above or below the molecule they belong to.

How the values were obtained:
[1] = Medline cross-correlation with 12,155 bleeding publications
[2] = for half-life: in vivo
stomach = conditions: for subjects with barium emptied from the stomach after 60 minutes: 3 minutes after intake of barium; for food emptying half-life from the stomach: oral 15 mg Metoclopramide 30 minutes prior to tagged food
healthy subjects = conditions: about 10 mg Cisapride by mouth
[3] = healthy subjects, about 30 mg/day Cisapride by mouth (10x3)
[4] = manometric measurement, intravenous injection of about 10 mg Cisapride

- cases with abdominal discomfort (in vivo): about 16%
- cases with abdominal pain (in vivo): about 4%
- half-life [2]: about 10 hours
- bio-availability ([2]; oral): about 40%
Structure (SMILES): COc1cc(N)c(Cl)cc1C(=O)NC1CCN(CCCOc2ccc(F)cc2)CC1OC (stereo not drawn) [Cisapride, CIS-4-AMINO-5-CHLORO-N-(1-(4-FLUOROPHENOXY) PROPYL)3 METHOXY-4-PIPERIDINYL)-2 METHOXYBENZAMIDE MONOHYDRATE]
- reports of bleeding from the digestive tract caused by the drug [1]: not a single report of bleeding from the digestive tract caused by Cisapride
- change in the number of waves or in the wavelength (duodenum and jejunum; [3]): no change
- increase of amplitude in mmHg in the duodenum and jejunum (duodenum and jejunum; [3]): over 18.4%
- contraction amplitude in the jejunum increased by (duodenum and jejunum; [4]): about 43%
- contraction frequency (duodenum and jejunum; [4]): increased
- stomach emptying t1/2 (stomach; about 10 mg Cisapride by mouth): about 78 min
- stomach emptying time, effect (stomach; about 10 mg Cisapride by mouth): not affected
- emptying indigestible radio-opaque markers during the first hour (stomach; diabetics with gastroparesis, 5 mg Cisapride intravenously): lack of efficiency
- subjects with barium emptied from the stomach after 60 minutes (stomach; intravenous 8 mg Cisapride): 85%
- decrease of transit time of solid food (healthy subjects): about 20%
- intensity of segmentary contraction (small intestine; daily dose of about 10 to 15 mg Cisapride): may be insufficient

- half-life [2]: about 5 hours
- absorption when taken orally ([2]; oral): rapid and good
- bio-availability ([2]; oral): about 77%
- graph of plasma concentration at various times after oral administration ([2]; oral dose of 10 mg): linear
Structure (SMILES): CCN(CC)CCNC(=O)c1cc(Cl)c(N)cc1OC [Metoclopramide, AMINO-4 CHLORO-5 N-(DIETHYLAMINO-2 ETHYL) METHOXY-2 BENZAMIDE]
- reports of bleeding from the digestive tract caused by the drug [1]: not a single description of bleeding damage
- safety profile (intravenous about 10 mg and oral about 20 mg): high safety profile
- emptying indigestible radio-opaque markers during the first hour (stomach; diabetics with gastroparesis, 10 mg Metoclopramide intravenously): lack of efficiency
- mean half-life of stomach emptying (stomach; diabetics with gastroparesis, semi-solid tagged substance, 30 mg Metoclopramide per day (3x10), down from 110): 1.12 h
- food emptying half-life from the stomach (stomach; healthy subjects): 1.2 h
- subjects with barium emptied from the stomach after 60 minutes (stomach; intravenous 10 mg Metoclopramide): 93.5%
- food emptying half-life from the stomach (stomach; patients with reflux esophagitis): 0.993 h
- intensity of segmentary contraction (small intestine; about single 20 mg dose of Metoclopramide): may be insufficient
